Patent US20200009029A1, “COSMETIC COMPOSITION COMPRISING WATER DEPLETED IN 2H AND 18O ISOTOPS” (MEDENA AG, priority 2016, published 2020)

Assays:
[1] = Superoxide scavenging activity (antioxidant capacity), superoxide dismutase dependent reduction of cytochrome c; format: biochemical
[2] = Stability of verbascoside in merystem cell homogenate / carboxyl methyl cellulose mixture over thirty days (HPLC); format: physicochemical; details: 0.1 weight-% carboxyl methyl cellulose, initial 100 μM, darkness, 25° C., 30 days
Experimental: Merystem plant cells containing highly oxydisable active principles such as polyphenols (in this example verbascoside) were homogenized in ^18O and ^2H depleted (De-O,D) water having a concentration of 99.894 weight-% (and for comparison in distilled natural water). A hydrogel-forming substance, namely carboxyl methyl cellulose was added to the solutions in a concentration of 0.1 weight-%. The final concentration of verbascoside in the mixture was determined to be 100 μM by HPLC method using chromatographic standard of verbascoside. This concentration corresponds to 6 mg/100 ml or 0.006 weight-%. The maximum of the absorbance spectrum was obtained at 278 nm and retention time 15.65 min. The mixture was left in darkness at room temperature (25° C.) for thirty days. After this period, the mixture was analyzed for the presence and concentration of verbascoside.

presence and concentration of verbascoside after thirty days (HPLC) ([2]; mixture in 18O and 2H depleted (De-O,D) water): retained practically the initial levels
presence and concentration of verbascoside after thirty days (HPLC) ([2]; mixture in distilled natural water): did not contain any measurable amounts
SMILES: C[C@@H]1O[C@@H](O[C@@H]2[C@@H](O)[C@H](OCCc3ccc(O)c(O)c3)O[C@H](CO)[C@H]2OC(=O)/C=C/c2ccc(O)c(O)c2)[C@H](O)[C@H](O)[C@H]1O [verbascoside]
superoxide scavenging activity (antioxidant capacity) ([1]; mixture in natural water, day 30): not measurable
superoxide scavenging activity (antioxidant capacity) ([1]; mixture with De-O,D water, carboxy methyl cellulose and merystem cell homogenate, to day 30): remained practically unchanged
superoxide scavenging activity (antioxidant capacity) ([1]; mixtures of Example 1, day 0): possessed superoxide scavenging activity
